Patent US20040253267A1 (priority 2003, published 2004)
Like-named read-outs stand apart in the source and are kept apart here.

Assays:
[1] = system: breast cancer cell line MA782/5S-B; conditions: 31st day from tumor inoculation, 30 consecutive days treatment; AY/NY 0.3 ml oral once per day, CTX 30 mg/kg/day s.c.
Protocol: (§1) The biological composition comprising 10^8 cells per ml of activated and conditioned yeast cells of the strain Saccharomyces carlsbergensis Hansen strain AS2.441 was prepared by the methods described in Section 5.1 and subsections therein.
(§2) The animals used to generate the breast cancer cells for the experiments were female mice derived from an outbreed line of mouse (obtainable from the Chinese Academy of Military Medical Sciences, Beijing, China), having an average body weight of about 18 to 20 gram. About […] viable tumor cells of the breast cancer cell line MA782/5S-B (obtainable from the Cancer Institute, Chinese Academy of Medical Sciences, Beijing, China) in about 0.2 ml culture suspension were injected subcutaneously into the animals.
The mice injected with tumor cells were immediately divided into 4 experimental groups of ten mice per group and one control group. The four experimental groups were triplicated (i.e., using a total of 120 mice in the experimental groups).
The mice received the biological compositions, untreated yeast cells, CTX or saline on the same day as the tumor cells were transplanted. The mice in group CK2 also started receiving saline on the same day as the other four groups. […] The weight of the mice and the weight of the tumor were determined by standard techniques.

[2] = system: breast cancer cell line MA782/5S-B; conditions: for Number of live animals remaining in the groups after 30 days of treatment: 30 mice per group
Protocol: as §2
The survival time of mice after tumor injection and treatment was studied.
as §1
The animals were prepared in a similar manner as described in Section 8.1.
The mice injected with tumor cells were immediately divided into 4 experimental groups of ten mice per group and one control group. The four experimental groups were triplicated (i.e., using a total of 120 mice in the experimental groups). In group 2AY, the mice received 0.5 ml of the biological composition once per day. In group 2NY, the mice received 0.5 ml of the untreated yeast cells once per day. In group 2CTX, the mice were injected subcutaneously with 45 mg of cyclophosphamide (CTX) per kg body weight per day. In group 2CK1, the mice received 0.5 ml of physiological saline once per day.
The mice received the biological compositions, untreated yeast cells, CTX or saline on the same day as the tumor cells were transplanted. The mice in group 2CK2 also started receiving saline on the same day as the other four groups. The biological compositions, untreated yeast cells and saline were administered orally by a feeding tube and the CTX by subcutaneous injection for 30 consecutive days. The mice were observed over 6 months from the day of tumor inoculation and survival was recorded. The weight of the mice and the weight of the tumor were determined by standard techniques.

[3] = system: breast cancer cell line Ca615-B; assay: Tumor growth in 615 strain mouse model of human breast cancer (Example 6); format: in vivo; conditions: 31st day from tumor inoculation, 30 consecutive days treatment; AY/NY 0.3 ml oral once per day, TSPA 1.5 mg/kg/day i.v.
Protocol: In group TSPA, the mice were injected intravenously with 1.5 mg of thiotepa (TSPA) per kg body weight per day.

[4] = system: breast cancer cell line Ca615-B; assay: Survival time in 615 strain mouse model of human breast cancer (Example 7); format: in vivo; conditions: for Number of live animals remaining in the groups after 30 days of treatment: 30 mice per group
Protocol: In group 2TSPA, the mice were injected intravenously with 2.5 mg of thiotepa (TSPA) per kg body weight per day.

[5] = mice that survived, observed over 6 months, 2AY/2NY 0.5 ml oral once per day, 2TSPA 2.5 mg/kg/day i.v., 30 days
[6] = mice that survived, observed over 6 months, 2AY/2NY 0.5 ml oral once per day, 2CTX 45 mg/kg/day s.c., 30 days

O=P1(N(CCCl)CCCl)NCCCO1 (stereo not drawn) [CTX, cyclophosphamide]
mean weight of mice and standard deviation [1]: 19.4 ± 2.2 g | mean weight of tumor nodules and standard deviation [1]: 3.1 ± 1.7 g | Number of live animals remaining in the groups after 30 days of treatment ([2]; 0 month after cessation of treatment, 2AY/2NY 0.5 ml oral once per day, 2CTX 45 mg/kg/day s.c.): 30 | Number of live animals remaining in the groups after 30 days of treatment ([2]; 1 month after cessation of treatment, 2AY/2NY 0.5 ml oral once per day, 2CTX 45 mg/kg/day s.c.): 30 | Number of live animals remaining in the groups after 30 days of treatment ([2]; 2 months after cessation of treatment, 2AY/2NY 0.5 ml oral once per day, 2CTX 45 mg/kg/day s.c.): 17 | Number of live animals remaining in the groups after 30 days of treatment ([2]; 3 months after cessation of treatment, 2AY/2NY 0.5 ml oral once per day, 2CTX 45 mg/kg/day s.c.): 0 | Number of live animals remaining in the groups after 30 days of treatment ([2]; 4 months after cessation of treatment, 2AY/2NY 0.5 ml oral once per day, 2CTX 45 mg/kg/day s.c.): 0 | Number of live animals remaining in the groups after 30 days of treatment ([2]; 5 months after cessation of treatment, 2AY/2NY 0.5 ml oral once per day, 2CTX 45 mg/kg/day s.c.): 0 | Number of live animals remaining in the groups after 30 days of treatment ([2]; 6 months after cessation of treatment, 2AY/2NY 0.5 ml oral once per day, 2CTX 45 mg/kg/day s.c.): 0 | survival outcome (in words) ([2]; observed over 6 months, 2NY 0.5 ml per day, 2CTX 45 mg/kg/day): all died during the experiment

S=P(N1CC1)(N1CC1)N1CC1 [TSPA, thiotepa]
mean weight of mice and standard deviation [3]: 20 ± 2.4 g | mean weight of tumor nodules and standard deviation [3]: 3.1 ± 1.6 mg | Number of live animals remaining in the groups after 30 days of treatment ([4]; 0 month after cessation of treatment, 2AY/2NY 0.5 ml oral once per day, 2TSPA 2.5 mg/kg/day i.v.): 30 | Number of live animals remaining in the groups after 30 days of treatment ([4]; 1 month after cessation of treatment, 2AY/2NY 0.5 ml oral once per day, 2TSPA 2.5 mg/kg/day i.v.): 30 | Number of live animals remaining in the groups after 30 days of treatment ([4]; 2 months after cessation of treatment, 2AY/2NY 0.5 ml oral once per day, 2TSPA 2.5 mg/kg/day i.v.): 23 | Number of live animals remaining in the groups after 30 days of treatment ([4]; 3 months after cessation of treatment, 2AY/2NY 0.5 ml oral once per day, 2TSPA 2.5 mg/kg/day i.v.): 11 | Number of live animals remaining in the groups after 30 days of treatment ([4]; 4 months after cessation of treatment, 2AY/2NY 0.5 ml oral once per day, 2TSPA 2.5 mg/kg/day i.v.): 4 | Number of live animals remaining in the groups after 30 days of treatment ([4]; 5 months after cessation of treatment, 2AY/2NY 0.5 ml oral once per day, 2TSPA 2.5 mg/kg/day i.v.): 0 | Number of live animals remaining in the groups after 30 days of treatment ([4]; 6 months after cessation of treatment, 2AY/2NY 0.5 ml oral once per day, 2TSPA 2.5 mg/kg/day i.v.): 0 | mean weight of mice and standard deviation [4, 5]: all animals dead | mean weight of tumor nodules and standard deviation [4, 5]: all animals dead | survival outcome (in words) ([4]; observed over 6 months, 2AY/2NY 0.5 ml per day, 2TSPA 2.5 mg/kg/day): all died during the experiment | mean weight of mice and standard deviation [2, 6]: all animals dead | mean weight of tumor nodules and standard deviation [2, 6]: all animals dead
